Experimental findings from US8106055B2, “Substituted amide compounds” (Gruenenthal GmbH, priority 2007, dated 2012) are described below.

Like-named read-outs stand apart in the source and are kept apart here.

The target in test [1] is T1, serotonin (5-HT) reuptake (Rattus norvegicus, UniProt P31652).
T1 construct: synaptosomes are freshly isolated from areas of the rat brain; from tissue; host or cells: rat brain synaptosomes (P2 fraction)
In words: Inhibition of serotonin (5HT) reuptake in synaptosomes from rat brain. The note with it: test concentration of 10 μM; read-out: 5-HT (inhibition of reuptake of serotonin, % inhibition). The test is classed as biochemical. Here is the method:
Binding data of the compounds on the μ opioid receptor and data on the inhibition of reuptake of serotonin (5-HT) are given in Table 1. The data for the μ receptor were measured at a test concentration of 1 μM, and those for the serotonin reuptake at 10 μM. The values are stated in % inhibition.
Inhibition of Serotonin (5HT) Reuptake
In order to be able to carry out these in vitro studies, synaptosomes are freshly isolated from areas of the rat brain. In each case a so-called “P2” fraction prepared in accordance with the instructions of Gray and Whittaker (E. G. Gray and V. P. Whittaker (1962) J. Anat. 76, 79-88) is prepared. For the NA uptake, these vesicular particles are isolated from the hypothalamus of male rat brains.
A detailed description of the method can be found in the literature (M. Ch. Frink, H.-H. Hennies, W. Englberger, M. Haurand and B. Wilffert (1996) Arzneim.-Forsch./Drug Res. 46 (III), 11, 1029-1036).

Test [2] concerns the target T2, human bradykinin 1 receptor (B1R) (Homo sapiens, UniProt P46663).
T2 construct: expressed in transfected cells; host or cells: CHO K1 cells
T2 sequence (P46663 1-353): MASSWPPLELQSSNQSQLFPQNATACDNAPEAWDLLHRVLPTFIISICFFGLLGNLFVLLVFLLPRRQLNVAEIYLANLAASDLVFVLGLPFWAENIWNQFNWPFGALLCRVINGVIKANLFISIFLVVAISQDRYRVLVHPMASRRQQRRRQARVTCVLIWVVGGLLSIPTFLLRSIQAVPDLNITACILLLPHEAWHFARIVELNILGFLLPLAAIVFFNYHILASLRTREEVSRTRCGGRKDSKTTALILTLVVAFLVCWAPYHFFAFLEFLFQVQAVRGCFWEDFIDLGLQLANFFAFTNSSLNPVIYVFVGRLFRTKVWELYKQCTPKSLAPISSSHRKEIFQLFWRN
In words: Functional investigation on the human bradykinin 1 receptor (B1R), Ca2+ FLIPR assay in CHO K1 hB1R cells. The test is classed as cell-based. The note with it: test substance 10 μM; for inhibition at 10 µM: CHO-K1, B1R antagonism human, read-out: B1R Ant. h [10 μM] % Inhibition. The method, boiled down: (§1)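 Stably transfected CHO K1 cells loaded with Fluo-4; FLIPR Ca2+ fluorescence peak (ex 488/em 540 nm). Compound added first (agonism vs Lys-Des-Arg9-bradykinin ≥50 nM human, Des-Arg9-bradykinin 10 μM rat), then after 10-20 min agonist at EC80; antagonism as % inhibition, IC50 from concentration series, n=2-3, N≥2.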

In test [3] the target is T3, bradykinin 1 receptor (B1R) of the rat (Rattus norvegicus, UniProt P97583).
T3 construct: expressed in transfected cells; host or cells: CHO K1 cells
T3 sequence (P97583 1-337): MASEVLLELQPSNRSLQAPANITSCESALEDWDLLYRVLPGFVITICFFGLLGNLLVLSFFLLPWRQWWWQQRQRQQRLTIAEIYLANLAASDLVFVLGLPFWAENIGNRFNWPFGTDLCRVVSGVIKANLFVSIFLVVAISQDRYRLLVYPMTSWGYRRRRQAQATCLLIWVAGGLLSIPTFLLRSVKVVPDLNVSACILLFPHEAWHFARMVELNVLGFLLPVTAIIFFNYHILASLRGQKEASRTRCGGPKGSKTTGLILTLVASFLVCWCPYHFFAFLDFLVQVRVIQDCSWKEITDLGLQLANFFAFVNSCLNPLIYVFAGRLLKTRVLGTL
In words: Functional investigation on the rat bradykinin 1 receptor (B1R), Ca2+ FLIPR assay in CHO K1 rB1R cells. In kind it is cell-based. The note with it: test substance 10 μM; for inhibition at 10 µM: CHO-K1, B1R antagonism rat, read-out: B1R Ant. r [10 μM] % Inhibition. The method, boiled down:
as §1

The target of test [4] is T4, human μ opiate receptor (Homo sapiens, UniProt P35372).
T4 construct: purchased PerkinElmer Life Sciences, Zaventem, Belgium RB-HOM; host or cells: CHO-K1 cells (membrane preparation)
T4 sequence (P35372 whole entry): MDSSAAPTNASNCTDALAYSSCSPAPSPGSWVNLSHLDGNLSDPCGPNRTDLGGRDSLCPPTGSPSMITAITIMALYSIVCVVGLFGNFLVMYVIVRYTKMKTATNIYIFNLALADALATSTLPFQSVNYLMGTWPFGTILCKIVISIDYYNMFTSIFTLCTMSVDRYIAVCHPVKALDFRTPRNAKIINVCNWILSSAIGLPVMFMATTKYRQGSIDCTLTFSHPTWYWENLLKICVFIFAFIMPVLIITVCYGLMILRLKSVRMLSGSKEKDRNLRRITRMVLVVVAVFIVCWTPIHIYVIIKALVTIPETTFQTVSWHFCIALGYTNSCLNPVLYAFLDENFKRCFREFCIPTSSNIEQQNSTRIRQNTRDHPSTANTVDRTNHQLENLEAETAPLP
Put plainly: Affinity for the human μ opiate receptor ([3H]-naloxone displacement, CHO-K1 receptor membrane preparation, SPA). The test is classed as binding. The conditions noted are these: test concentration 1 μM; for inhibition at 1 µM: 1.5 h. The method, boiled down: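 Readout is percent displacement of [3H]-naloxone (1 nmol/l) from human μ receptor in CHO-K1 membranes, measured at 1 μmol/l compound. Incubation runs 90 minutes at room temperature with WGA-SPA beads in Tris-HCl/BSA buffer; non-specific binding is defined with 100 μmol/l naloxone.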

Setting [5] is: Table 3, to be read in the same way as Table 1, read-out: μ.
[6] abbreviates: % inhibition compared with the maximum achievable inhibition.

T1 sequence (P31652 whole entry): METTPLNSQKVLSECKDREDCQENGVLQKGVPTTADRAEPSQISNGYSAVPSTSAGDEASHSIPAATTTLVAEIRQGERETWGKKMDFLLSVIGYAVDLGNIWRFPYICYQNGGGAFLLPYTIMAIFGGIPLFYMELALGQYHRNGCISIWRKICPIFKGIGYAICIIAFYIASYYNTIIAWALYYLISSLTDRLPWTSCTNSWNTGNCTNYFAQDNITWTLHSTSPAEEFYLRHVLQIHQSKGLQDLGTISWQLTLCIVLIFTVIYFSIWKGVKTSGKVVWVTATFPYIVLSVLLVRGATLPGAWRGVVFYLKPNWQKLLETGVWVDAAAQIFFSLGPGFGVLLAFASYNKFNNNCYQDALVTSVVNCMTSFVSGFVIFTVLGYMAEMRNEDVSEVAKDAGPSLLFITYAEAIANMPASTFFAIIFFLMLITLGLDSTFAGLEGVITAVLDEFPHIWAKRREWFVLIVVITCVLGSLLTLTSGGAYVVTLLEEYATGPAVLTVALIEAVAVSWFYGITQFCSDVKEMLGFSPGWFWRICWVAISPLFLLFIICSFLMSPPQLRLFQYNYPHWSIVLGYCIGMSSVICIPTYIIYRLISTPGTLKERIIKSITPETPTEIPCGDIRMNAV

For `CC(Oc1ccccc1)C(=O)NCC1CCC(C(c2ccccc2)N(C)C)CC1` (stereo not shown) [Example 50, N-((4-((dimethylamino)(phenyl)methyl)cyclohexyl)methyl)-2-phenoxypropanamide], the inhibition at 10 µM in test [1] stood at 65%.
With `CN(CCOCC(=O)NCC1CCC(C(CCc2ccccc2)N2CCOCC2)CC1)S(=O)(=O)c1c(Cl)cc(Cl)cc1Cl` (stereo not shown) [Example 715, N-((4-(1-morpholino-3-phenylpropyl)cyclohexyl)methyl)-2-(2-(2,4,6-trichloro-N-methylphenylsulfonamido)ethoxy)acetamide], the inhibition at 10 µM in test [2] (Ca2+ FLIPR, CHO K1 hB1R cells) is 55%; in test [3] (Ca2+ FLIPR, CHO K1 rB1R cells), 24%. Also, the inhibition at 1 µM in test [4] (setting [5]) was determined as 10%.
`CN1CCN(C(CCc2ccccc2)C2CCN(C(=O)COCC3CCc4ccccc4N3S(=O)(=O)c3ccc(Cl)c(Cl)c3)CC2)CC1` (stereo not shown) [Example 811, 2-((1-(3,4-dichlorophenylsulfonyl)-1,2,3,4-tetrahydroquinolin-2-yl)methoxy)-1-(4-(1-(4-methylpiperazin-1-yl)-3-phenylpropyl)piperidin-1-yl)ethanone]: the inhibition at 10 µM was 104% in test [2] (setting [6]) and 96% in test [3] (setting [6]). In addition, in test [4] (setting [5]), the inhibition at 1 µM was determined as 20%.
Regarding `COc1cc(C)c(S(=O)(=O)N(C)CCOCC(=O)NC2CCC(C(c3ccccc3)N3CCOCC3)CC2)c(C)c1` (stereo not shown) [Example 681, 2-(2-(4-methoxy-N,2,6-trimethylphenylsulfonamido)ethoxy)-N-(4-(morpholino(phenyl)methyl)cyclohexyl)acetamide], the inhibition at 10 µM turned out to be 98% in test [2] (Ca2+ FLIPR, CHO K1 hB1R cells) and 98% in test [3] (Ca2+ FLIPR, CHO K1 rB1R cells). Besides, the inhibition at 1 µM in test [4] (setting [5]) amounted to 10%.
Take `O=C(COCC1CCCCN1S(=O)(=O)c1c(Cl)cc(Cl)cc1Cl)NCC1CCC(C(c2ccccc2)N2CCOCC2)CC1` (stereo not shown) [Example 712, N-((4-(morpholino(phenyl)methyl)cyclohexyl)methyl)-2-((1-(2,4,6-trichlorophenylsulfonyl)piperidin-2-yl)methoxy)acetamide]: the inhibition at 10 µM worked out at 46% in test [2] (Ca2+ FLIPR, CHO K1 hB1R cells) and 100% in test [3] (Ca2+ FLIPR, CHO K1 rB1R cells). In addition, the inhibition at 1 µM in test [4] (setting [5]) was 40%.
On the same counts, the results for `COc1cc(C)c(S(=O)(=O)N2CCCC2COCC(=O)NC2CCC(C(c3ccccc3)N3CCOCC3)CC2)c(C)c1` (stereo not shown) [Example 694, 2-((1-(4-methoxy-2,6-dimethylphenylsulfonyl)pyrrolidin-2-yl)methoxy)-N-(4-(morpholino(phenyl)methyl)cyclohexyl)acetamide] are 54%, 104% and 10%.
For `CN(CCOCC(=O)NC1CCC(C(CCc2ccccc2)N2CCCCC2)CC1)S(=O)(=O)c1c(Cl)cccc1Cl` (stereo not shown) [Example 665, 2-(2-(2,6-dichloro-N-methylphenylsulfonamido)ethoxy)-N-(4-(3-phenyl-1-(piperidin-1-yl)propyl)cyclohexyl)acetamide], in that order: 94%, 28% and 18%.
Consider `COc1cc(C)c(S(=O)(=O)N2CCC(OCC(=O)NC3CCC(C(c4ccccc4)N4CCCC4)CC3)C2)c(C)c1` (stereo not shown) [Example 629, 2-(1-(4-methoxy-2,6-dimethylphenylsulfonyl)pyrrolidin-3-yloxy)-N-(4-(phenyl(pyrrolidin-1-yl)methyl)cyclohexyl)acetamide], for which the inhibition at 10 µM in test [2] (Ca2+ FLIPR, CHO K1 hB1R cells) worked out at 96%; in test [3] (Ca2+ FLIPR, CHO K1 rB1R cells), 67%. The inhibition at 1 µM in test [4] (setting [5]) was determined as 37%.
On to `O=C(COCC1CCCN1S(=O)(=O)c1c(Cl)cc(Cl)cc1Cl)NCC1CCC(C(c2ccccc2)N2CCOCC2)CC1` (stereo not shown) [Example 710, N-((4-(morpholino(phenyl)methyl)cyclohexyl)methyl)-2-((1-(2,4,6-trichlorophenylsulfonyl)pyrrolidin-2-yl)methoxy)acetamide], for which the inhibition at 10 µM came to 42% in test [2] (Ca2+ FLIPR, CHO K1 hB1R cells) and 92% in test [3] (Ca2+ FLIPR, CHO K1 rB1R cells). Also, the inhibition at 1 µM in test [4] (setting [5]) was determined as 24%.
For the molecule `CN(C)C(c1ccccc1)C1CCC(CNC(=O)COC2CCCN(S(=O)(=O)c3c(Cl)cc(Cl)cc3Cl)C2)CC1` (stereo not shown) [Example 621, N-[4-(dimethylaminophenylmethyl)-cyclohexylmethyl]-2-[1-(2,4,6-trichlorobenzenesulfonyl)-piperidin-3-yloxy]-acetamide], the inhibition at 10 µM in test [2] (Ca2+ FLIPR, CHO K1 hB1R cells) stood at 88%; in test [3] (Ca2+ FLIPR, CHO K1 rB1R cells) it was 0%. Further, in test [4] (Table 2, read-out: μ receptor), the inhibition at 1 µM came out at 90%.
Consider `CN(CCOCC(=O)NCC1CCC(C(c2ccccc2)N2CCCC2)CC1)S(=O)(=O)c1c(Cl)cc(Cl)cc1Cl` (stereo not shown) [Example 626, N-((4-(phenyl(pyrrolidin-1-yl)methyl)cyclohexyl)methyl)-2-(2-(2,4,6-trichloro-N-methylphenylsulfonamido)ethoxy)acetamide], for which the inhibition at 10 µM in test [2] (Ca2+ FLIPR, CHO K1 hB1R cells) is 105%; in test [3] (Ca2+ FLIPR, CHO K1 rB1R cells), 47%. Further, in test [4] (setting [5]), the inhibition at 1 µM came out at 71%.
For `COc1cc(C)c(S(=O)(=O)N2CCCCC2COCC(=O)NC2CCC(C(CCc3ccccc3)N3CCCCC3)CC2)c(C)c1` (stereo not shown) [Example 734, 2-((1-(4-methoxy-2,6-dimethylphenylsulfonyl)piperidin-2-yl)methoxy)-N-(4-(3-phenyl-1-(piperidin-1-yl)propyl)cyclohexyl)acetamide], in that order: 104%, 104% and 80%.
As to `O=C(COCC1CCCN1S(=O)(=O)c1c(Cl)cc(Cl)cc1Cl)NCC1CCC(C(CCc2ccccc2)N2CCCC2)CC1` (stereo not shown) [Example 752, N-((4-(3-phenyl-1-(pyrrolidin-1-yl)propyl)cyclohexyl)methyl)-2-((1-(2,4,6-trichlorophenylsulfonyl)pyrrolidin-2-yl)methoxy)acetamide], the inhibition at 10 µM in test [2] (Ca2+ FLIPR, CHO K1 hB1R cells) stood at 103%; in test [3] (Ca2+ FLIPR, CHO K1 rB1R cells), 104%. Also, the inhibition at 1 µM in test [4] (setting [5]) was 82%.
On to `COc1cc(C)c(S(=O)(=O)N2CCC(OCC(=O)NC3CCC(C(c4ccccc4)N4CCN(C)CC4)CC3)C2)c(C)c1` (stereo not shown) [Example 688, 2-(1-(4-methoxy-2,6-dimethylphenylsulfonyl)pyrrolidin-3-yloxy)-N-(4-((4-methylpiperazin-1-yl)(phenyl)methyl)cyclohexyl)acetamide], for which the inhibition at 10 µM came to 103% in test [2] (Ca2+ FLIPR, CHO K1 hB1R cells) and 94% in test [3] (Ca2+ FLIPR, CHO K1 rB1R cells). The inhibition at 1 µM in test [4] (setting [5]) was 20%.
For `O=C(COC1CCCN(S(=O)(=O)c2c(Cl)cc(Cl)cc2Cl)C1)NC1CCC(C(CCc2ccccc2)N2CCOCC2)CC1` (stereo not shown) [Example 672, N-(4-(1-morpholin-3-phenylpropyl)cyclohexyl)-2-(1-(2,4,6-trichlorophenylsulfonyl)piperidin-3-yloxy)acetamide], the “B1R Ant. h [10 μM] % Inhibition” value in test [2] (B1R antagonism human, Ca2+ FLIPR, CHO K1 hB1R cells) was found to be 18%. Also, the “B1R Ant. r [10 μM] % Inhibition” value in test [3] (B1R antagonism rat, Ca2+ FLIPR, CHO K1 rB1R cells) is 11%. Besides, the μ in test [4] (Table 3, to be read in the same way as Table 1) stood at 16 % inhibition.
